Experimental data from patent US11285167B2, “Synergistic nutritional neuroprotective compositions for ameliorating neural dysfunction” (CELAGENEX RESEARCH (INDIA) PVT. LTD., priority 2019, dated 2022).

Columns and labels:
[1] = tested on: Major depression disorder in Wistar rats; experiment: Forced swim test in Reserpine-induced major depression disorder; type: in vivo; conditions: forced swim test 5 min, Reserpine 1.0 mg/kg induced, oral daily 7 days, mean ± SEM, n = 6
[2] = tested on: Major depression disorder in Wistar rats; experiment: Open field test (ambulatory behavior) in Reserpine-induced major depression disorder; type: in vivo; conditions: 6 minute session, Reserpine induced, oral daily 7 days, mean ± SEM, n = 6

## CN(C)CCC[C@@]1(c2ccc(F)cc2)OCc2cc(C#N)ccc21 [Escitalopram, reference compound]
[1]
  Climbing: 20.17 ± 0.87
  Immobility: 91.67 ± 0.80
  Total time spent in active swimming: 208.33 ± 0.80 s
[2]
  No. of open arm entries (Open field test): 47.83 ± 0.60
